Experimental data taken from PMC5994430, “Mitochondrial Delivery of Phenol Substructure Triggers Mitochondrial Depolarization and Apoptosis of Cancer Cells” (Frontiers in Pharmacology, 2018).

What was measured:
[1] = test system: mitofusin 1 (MFN1) and mitofusin 2 (MFN2); assay: qRT-PCR of mitofusin mRNA in BEAS-2B cells; format: cell-based, Human; details: 0.1 μM, 4 h
Description: Supplementary Figure 4 Effects of TPP-derivatives on mitofusin 1 and mitofusin 2 expression.
A549 and BEAS-2B cells were incubated 4 h in fresh medium (ctrl) or with 0.1 µM of 1 and 2.
Expression of mitofusin 1 (MFN1) and mitofusin 2 (MFN2) mRNA was evaluated by qRT-PCR in
triplicates. Data are means ± SD (n=3).
(1 picture or pasted object on this page, not shown here)

[2] = test system: mitochondrial ATP; assay: Mitochondrial ATP in A549 cells; format: cell-based, Human; details: 0.1 μM, 4 h
Description: The amount of ATP was measured on 20 μg of mitochondrial extracts with the ATP Bioluminescent Assay Kit (FL-AA, Sigma Chemical Co.). Data were converted into nmoles/mg mitochondrial proteins, using a calibration curve previously set.
[t] Continuedof three experiments with similar results. (D) Confocal analysis of mitochondrial staining with MitoTracker® Green FM. Magnification: 60 × objective (0.52 numerical aperture); 10 × ocular lens. Bar: 10 μM. The micrographs are representative of three experiments with similar results. (E,F) The electron transport was measured spectrophotometrically in duplicates. ATP levels in mitochondrial extracts was measured by a chemiluminescence-based assay, in duplicates. Data are means ± SD (n = 3). For both panels: ^∗p < 0.001 vs. A549 ctrl cells; °p < 0.001 for BEAS-2B cells vs. the corresponding condition in A549 cells. (G,H) ROS amount in mitochondrial extracts and mitochondrial damage were measured fluorimetrically, in duplicates. Data are means ± SD (n = 3). For both panels: ^∗p < 0.001 vs. A549 ctrl cells; °p < 0.001 for BEAS-2B cells vs. the corresponding condition in A549 cells. There were no statistically significant differences between untreated (ctrl) and compound 1/compound 2-treated BEAS-2B cells for all the parameters analyzed in this figure.

[3] = test system: PGC-1α; assay: Immunoblot of nuclear PGC-1α in BEAS-2B cells; format: cell-based, Human; details: 0.1 μM, 4 h
[4] = test system: caspase 3; assay: Caspase 3 activity in A549 cell lysates; format: cell-based, Human; details: 0.1 μM, 24 h
Description: (§1) The activity of caspase 9 and 3 was measured by incubating 20 μg cell lysates with the respective fluorogenic substrates Ac-LEHD-AMC (LEHD-AMC) or DEVD-AMC (DEVD-AMC), as reported ([Pinzón-Daza et al., 2012]). Results were expressed as nmoles AMC/mg protein.
(§2) FIGURE 7 Effects of phenol TPP-derivatives on mitochondria-dependent apoptosis. A549 and BEAS-2B cells were incubated 24 h in fresh medium (ctrl) or in medium containing 0.1 μM of 1 or 2. (A,B) The activity of caspase 9 and 3 was measured fluorimetrically, in duplicates. Data are means ± SD (n = 3). For both panels: ^∗p < 0.001 vs. A549 ctrl cells; °p < 0.001 for BEAS-2B cells vs. the corresponding condition in A549 cells. (C,D) Cell cycle distribution, measured in duplicates. Data are means ± SD (n = 3). For both panels: ^∗p < 0.001 vs. A549 ctrl cells: °p < 0.001 for BEAS-2B cells vs. the corresponding condition in A549 cells. (E) Bright field microscope analysis of cells. Magnification: 60 × objective (0.52 numerical aperture); 10 × ocular lens. Bar: 20 μM. The micrographs are representative of three experiments with similar results.

[5] = test system: caspase 3; assay: Caspase 3 activity in BEAS-2B cell lysates; format: cell-based, Human; details: 0.1 μM, 24 h
Description: as §1, §2

[6] = test system: BEAS-2B cells; assay: Cell cycle analysis (propidium iodide flow cytometry); format: cell-based, Human; details: 0.1 μM, 24 h
Description: (§3) 1 × 10^4 cells were harvested, washed with PBS, treated with 0.25 mg/ml RNAse and stained for 15 min with 50 μg/ml propidium iodide. Cell cycle distribution was analyzed by Guava® easyCyte flow cytometer (Millipore, Billerica, MA, United States), using the InCyte software (Millipore).
as §2

[7] = test system: A549 cells; assay: as above; format: cell-based, Human; details: 0.1 μM, 24 h
Description: as §3, §2

[8] = test system: human cancer cell lines and normal cells; assay: Extracellular LDH release, panel of cancer cell lines and normal cells; format: cell-based; details: 24 h, 0.1, 1 and 10 μM
From the text: Human colon cancer HT29 cells, colon-derived normal fibroblast CCD-18Co cells, lung cancer A549 cells, normal human bronchial epithelial (immortalized with adenovirus 12-SV40 virus hybrid Ad12SV40) BEAS-2B cells, breast cancer MDA-MB-231 cells, normal breast epithelial MCF10A cells, human osteosarcoma U-2OS cells were purchased from ATCC (Manassas, VA, United States). Primary osteoblasts were generated as reported previously ([Buondonno et al., 2016]). HMM and HMC were primary cells stabilized in culture as described ([Aldieri et al., 2004]). The use of primary cells was approved by Ethical Committee of the San Luigi Gonzaga Hospital, Orbassano, (protocol #126/2016). […]
The extracellular release of LDH, considered an index of cell damage and necrosis, was measured spectrophotometrically, as reported ([Riganti et al., 2013b]). […] LDH activity was measured in the extracellular medium and in the cell lysate: 50 μl of extracellular medium or 5 μl of cell lysate were incubated at 37°C with 5 mM NADH. The reaction was started by adding 20 mM pyruvic acid and was monitored for 6 min, measuring absorbance at 340 nm using a Synergy HT Multi-Detection Microplate Reader (Bio-Tek Instruments, Winoosky, MT, United States). […] Both intracellular and extracellular enzyme activities were expressed as μmol NADH oxidized/min/dish. […] IC50 was calculated with the CompuSyn software^1. […]

| Structure (SMILES) | expression of mitofusin 1 (MFN1) and mitofusin 2 (MFN2) [1] | amount of mitochondrial ATP [2] | nuclear level of PGC-1α [3] | activity of caspase 3 [4] | activity of caspase 3 [5] | cell cycle distribution [6] | percentage of cells in S-phase [7] | percentage of cells in the sub-Go phase [7] | release of LDH in the extracellular medium [8] |
| --- | --- | --- | --- | --- | --- | --- | --- | --- | --- |
| CC(=O)Oc1ccc(C[P+](c2ccccc2)(c2ccccc2)c2ccccc2)cc1.[Br-] [Compound 1] | no changes | significant decrease | unaffected | strong activation | remained similar to untreated cells | no change | reduced percentage | increased | dose-dependent increase |
| O=C(Oc1ccc(C[P+](c2ccccc2)(c2ccccc2)c2ccccc2)cc1C(F)(F)F)c1ccccc1.[Br-] [Compound 2] | no changes | significant decrease | unaffected | strong activation | remained similar to untreated cells | no change | reduced percentage | increased | dose-dependent increase |
